Source: patent publication US20170290783A1, “Rabbit Maternal Pheromones to Enhance the Weight of Weaning Piglets” (Animal Biotech, LLC, priority 2016, published 2017)

Key:
[1] = test system: re-grouped, stressed pigs; settings: cited from earlier work
weaning piglets = assay: Post-weaning piglet performance (body weight, ADG, ADFI, G:F) after a single application of rabbit maternal pheromone to the nursery feeder; format: in vivo, pig
Description: Piglets (n=120) were randomly selected from nursing sows. A total of 120 piglets, 60 males and 60 females, were weaned at approximately 3 weeks of age and transported for four hours before entering the nursery site. Piglets were housed in groups of three, single-sex (either barrows or gilts), and had ad libitum access to feed and water. A total of 40 pens (the experimental unit) were available; 10 each of male and female experiencing control or pheromone therapy. Space allowance was in excess of industry standards (0.6 m^2 per piglet). Body weight and feed intake were each measured once per week from commencement of weaning until 35 days after weaning.
Control and pheromone-treated piglets were housed in separate rooms, with no airflow between the rooms to ensure no cross contamination between air spaces. To expose piglets to the rabbit maternal pheromone, test piglet feeders received 25 mL of the trans-2-methyl-2-butenal solution (1 μg/mL in isopropyl alcohol) while the control piglet feeders received 25 mL of isopropyl alcohol only. Feeders were sprayed immediately before the arrival of piglets to the nursery site.
Half of the pigs and pens in each group were transported and half were moved directly from the farrowing crates to the adjacent nursery building. The experimental design was a completely random design with a two by two factorial arrangement of transport (or not) and trans-2-methyl-2-butenal or placebo control.
Average daily gain (ADG, kg. per day) was calculated from the body weights both weekly and over the entire period. Average daily feed intake (ADFI, kg. per pig per day) was calculated based on weekly feed consumption. Gain to Feed (G:F) was calculated each week and over the 28-day post-weaning period.
Data were analyzed using SAS software (SAS, 2012). PROC Univariate was used to establish that the overall ADG, ADFI and G:F ratio data were normally distributed. The general linear models procedure was used with pen as the experimental unit. There were 40 experimental units (pens) in total. The original model contained the factorial effects of (A) trans-2-methyl-2-butenal applied during transport or not, (B) trans-2-methyl-2-butenal applied to the nursery feeder or not, and (3) pig sex (barrow vs. gilt) and all possible interactions. […] A final simplified analysis was performed with only the effects of trans-2-methyl-2-butenal applied in the nursery or not with 20 pens per treatment.

## C[C@]12CCC(=O)C[C@@H]1CC[C@@H]1[C@@H]2CC[C@]2(C)C=CC[C@@H]12 [Androstenone]
[1]; pig, in vivo
  Pig aggressive behaviors: reduced
[1]; re-grouped, stressed pigs
  Weight gain: temporarily improve

## C/C=C(\C)C=O [trans-2-methyl-2-butenal]
Weaning piglets; 14 days after weaning
  Piglet body weight vs control: tended (P=0.06) to be heavier
Weaning piglets; P>0.10 vs control
  G:F (gain to feed): not influenced
Weaning piglets; at weaning and 7 days later, 25 mL of 1 μg/mL in isopropyl alcohol sprayed on feeder
  Piglet body weight vs control: statistically similar
Weaning piglets; at weaning, pigs to experience treatment, control 6.5±0.06 kg, P>0.10
  Body weight at weaning: 6.6 ± 0.025 kg
Weaning piglets; both the 4 and 5 week period after weaning, P<0.05 vs control
  Overall ADG (average daily gain): increase
Weaning piglets; days 21, 28 and 35 after weaning, P<0.05
  Piglet body weight vs control: significantly heavier
Weaning piglets; during 4 weeks after weaning, P<0.05 vs control
  ADFI (average daily feed intake): increase
Weaning piglets; first week after weaning
  Stimulatory effect on feed intake: very small (and not significant)
Weaning piglets; five weeks after weaning, P=0.01
  Improvement in body weight vs control: 8.5%
Weaning piglets; five weeks after weaning, control 16.5±0.31 kg, P=0.01
  Body weight five weeks after weaning: 17.9 ± 0.31 kg
Weaning piglets; single application to the feeder in the post-weaning environment
  ADFI and ADG: stimulate
Weaning piglets; transport application, P>0.10
  Overall performance measures, effect of application during transport: not significant
Weaning piglets; weeks 3, 5 and overall, P<0.05
  Post-weaning ADG: increased
Weaning piglets; weeks 3 and 4 after weaning and overall 5-week growth period, P<0.05
  ADFI: higher
Weaning piglets; weeks two to five after weaning
  Stimulatory effect on feed intake: increases in magnitude
